SMILES strings stand for the structures. A value given as a limit tells only on which side of the number the result lay.

The first test deals with T1, human cardiac ion channel proteins hKir3.1/Kir3.4 (Homo sapiens, UniProt P48544+P48549).
T1 construct: expressed in transfected cells
T1 sequence (P48549 1-501): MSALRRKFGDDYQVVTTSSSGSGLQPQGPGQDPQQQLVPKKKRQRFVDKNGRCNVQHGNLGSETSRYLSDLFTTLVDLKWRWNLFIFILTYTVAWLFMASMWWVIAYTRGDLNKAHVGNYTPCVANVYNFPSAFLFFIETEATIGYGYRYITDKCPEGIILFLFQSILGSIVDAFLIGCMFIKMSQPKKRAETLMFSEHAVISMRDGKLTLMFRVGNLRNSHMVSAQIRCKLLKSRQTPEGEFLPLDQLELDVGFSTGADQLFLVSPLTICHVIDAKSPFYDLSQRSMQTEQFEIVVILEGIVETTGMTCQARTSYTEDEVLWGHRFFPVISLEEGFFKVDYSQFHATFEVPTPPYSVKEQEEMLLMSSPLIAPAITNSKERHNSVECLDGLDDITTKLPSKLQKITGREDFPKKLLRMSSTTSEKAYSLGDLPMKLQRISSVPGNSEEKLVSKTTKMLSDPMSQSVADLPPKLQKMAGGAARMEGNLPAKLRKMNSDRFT
T1 sequence (P48544 1-419): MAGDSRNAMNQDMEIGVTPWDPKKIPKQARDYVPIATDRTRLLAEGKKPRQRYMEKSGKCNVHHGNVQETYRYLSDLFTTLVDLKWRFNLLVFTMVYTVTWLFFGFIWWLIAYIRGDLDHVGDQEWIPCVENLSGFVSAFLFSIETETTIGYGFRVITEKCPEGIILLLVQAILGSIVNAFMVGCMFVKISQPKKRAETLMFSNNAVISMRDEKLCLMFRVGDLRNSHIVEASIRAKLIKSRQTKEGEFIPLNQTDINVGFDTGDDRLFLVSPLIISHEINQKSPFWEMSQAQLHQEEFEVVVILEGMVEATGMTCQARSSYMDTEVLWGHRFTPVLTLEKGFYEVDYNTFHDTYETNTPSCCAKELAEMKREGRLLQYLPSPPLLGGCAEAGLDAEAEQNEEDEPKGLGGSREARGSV
The test is described as follows: Atomic Absorption Screening (AAS) Rb efflux assay of hKir3.1/Kir3.4 block, carbachol/high K+ stimulated, 10-pt or 7-pt CR. The class given is cell-based. The following applies: 7-pt CR (0.037 to 27 μmol/L), AAS Rb efflux, CHO-K1 cells expressing hKir3.1/Kir3.4; mean of >3 replicates; read-out: IKACh IC50 7-pt CR, AAS. A digest of the protocol:
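CHO-K1 cells stably co-expressing human Kir3.1/Kir3.4 were Rb-loaded for 3 h at 37° C, preincubated with compound 5 min at RT, then stimulated 10 min with 10 μM carbachol plus 20 mM KCl (final). Supernatant Rb was measured by atomic absorption. Compounds ran at 0.003–67 μmol/L (10-pt) or 0.037–27 μmol/L (7-pt), threefold dilutions; IC50s are means of >4 or >3 replicates respectively.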
In the case of `CC(C)[C@@H](CN1CCCCC1)N(C)C(=O)c1ccc(Cl)cc1Cl` [Example 16.30, 2,4-Dichloro-N-methyl-N-[(1S)-2-methyl-1-(piperidin-1-ylmethyl)propyl]benzamide], the half-maximal inhibitory concentration (IC50) was 1.7 µM.

On to `CC(C)[C@H](CN1CCCC1)N(C)C(=O)c1ccc(Br)cc1` [Example 16.57, (R)-4-Bromo-N-methyl-N-(3-methyl-1-(pyrrolidin-1-yl)butan-2-yl)benzamide], for which the concentration for half-maximal inhibition (IC50) was 11 µM. Turning to `CC(C)[C@@H](CN1CCCC1)N(C)C(=O)c1cc(F)ccc1F` [Example 16.22, (S)-2,5-Difluoro-N-methyl-N-(3-methyl-1-(pyrrolidin-1-yl)butan-2-yl)benzamide], the IC50 was 18 µM. On the same count and under the same terms, the value for `Cc1c(F)cccc1C(=O)N(C)[C@H](CN1CCCCC1)C(C)C` [Example 16.38, (S)-3-Fluoro-N,2-dimethyl-N-(3-methyl-1-(piperidin-1-yl)butan-2-yl)benzamide] was 17 µM.

The test is the same for the next values; noted with them: 10-pt CR (0.003 to 67 μmol/L), AAS Rb efflux, CHO-K1 cells expressing hKir3.1/Kir3.4; mean of >4 replicates; read-out: IKACh IC50 10-pt CR, AAS.
`COCC1CN(C[C@H](C(C)C)N(C)C(=O)c2ccc(F)c(F)c2)C1` [Example 28, (S)-3,4-Difluoro-N-(1-(3-(methoxymethyl)azetidin-1-yl)-3-methylbutan-2-yl)-N-methylbenzamide]: the concentration for half-maximal inhibition (IC50) was found to be 19 µM. Consider `CC[C@H](C)[C@@H](CN1CCCC1)N(C)C(=O)c1ccc(Cl)cc1Cl` [Example 2.6, 2,4-Dichloro-N-methyl-N-((2S,3S)-3-methyl-1-(pyrrolidin-1-yl)pentan-2-yl)benzamide], for which the IC50 worked out at 2 µM. Still for that read-out and setting: the value for `COCCN(C(=O)c1ccc(Br)cc1)[C@H](CN1CCCC1)C(C)C` [Example 15.5, (S)-4-Bromo-N-(2-methoxyethyl)-N-(3-methyl-1-(pyrrolidin-1-yl)butan-2-yl)benzamide] was 2.3 µM. Still for that read-out and setting: the value for `CN(C(=O)c1cccc(C(F)F)c1)[C@@H](CN1CC(O)C1)C1CCC1` [Example 35.8, N-[(1R)-1-Cyclobutyl-2-(3-hydroxyazetidin-1-yl)ethyl]-3-(difluoromethyl)-N-methylbenzamide] was 8 µM. Take `CN(C(=O)c1ccc(C#N)cc1)[C@H](CN1CC(O)(C2CC2)C1)C1CC1` [Example 9.4, (S)-4-Cyano-N-(1-cyclopropyl-2-(3-cyclopropyl-3-hydroxyazetidin-1-yl)ethyl)-N-methylbenzamide]: the IC50 is 14 µM. As to `CCCC[C@@H](CN1CC(O)C1)N(C)C(=O)c1ccccc1` [Example 33.5, N-[(2S)-1-(3-Hydroxyazetidin-1-yl)hexan-2-yl]-N-methylbenzamide], the half-inhibitory concentration (IC50) amounted to 1 µM. `CC(C)[C@@H](CN1CCC1)N(C)C(=O)c1ccc(F)c(Cl)c1` [Example 1.12, (S)-N-(1-(Azetidin-1-yl)-3-methylbutan-2-yl)-3-chloro-4-fluoro-N-methylbenzamide]: the 50% inhibitory concentration (IC50) came out at 2.9 µM. The same measure, in the same setting: the value for `CC(C)[C@H](CN1CCCC1)N(C)C(=O)c1ccc(Br)cc1` [Example 16.57, (R)-4-Bromo-N-methyl-N-(3-methyl-1-(pyrrolidin-1-yl)butan-2-yl)benzamide] was 8.8 µM. On the same count and under the same terms, the value for `COc1cc(Cl)ccc1C(=O)N(C)[C@@H](CC(C)C)CN1CC(O)C1` [Example 38.7, 4-Chloro-N-[(2S)-1-(3-hydroxyazetidin-1-yl)-4-methylpentan-2-yl]-2-methoxy-N-methylbenzamide] was 0.47 µM.

For the compound `CCC[C@@H](CN1CC(OC(C)C)C1)N(C)C(=O)c1ccc(Cl)cc1` [Example 31.4, 4-chloro-N-methyl-N-{(25)-1-[3-(propan-2-yloxy)azetidin-1-yl]pentan-2-yl}benzamide], the 50% inhibitory concentration (IC50) turned out to be 0.33 µM.

In the case of `CCC[C@H](CN1CC(O)C1)N(C)C(=O)c1ccc(Cl)cc1` [Example 37, 4-Chloro-N-[(2R)-1-(3-hydroxyazetidin-1-yl)pentan-2-yl]-N-methylbenzamide], the half-inhibitory concentration (IC50) was found to be 9.7 µM. `CCC[C@@H](CN1CC(O)C1)N(C)C(=O)c1ccc(Br)cc1` [Example 8.7, (S)-4-Bromo-N-(1-(3-hydroxyazetidin-1-yl)pentan-2-yl)-N-methylbenzamide]: the IC50 is 1.7 µM. `CN(C(=O)c1ccc(Cl)cc1)C(CN1CC(O)C1)C1CCCC1` (single isomer, unassigned) [32.3, isomer 1]: the IC50 came to 0.055 µM. Same read-out and setting: the value for `Cc1ccc(C(=O)N(C)[C@H](CN2CCCC(F)(F)C2)C(C)C)cc1C` [Example 16.3, (S)—N-(1-(3,3-Difluoropiperidin-1-yl)-3-methylbutan-2-yl)-N,3,4-trimethylbenzamide] was 11 µM. Regarding `COC1CCN(C[C@H](C(C)C)N(C)C(=O)c2ccc(C)c(C)c2)CC1` [Example 3.12, (S)-N-(1-(4-Methoxypiperidin-1-yl)-3-methylbutan-2-yl)-N,3,4-trimethylbenzamide], the IC50 turned out to be 2.5 µM. In the case of `Cc1cc(C(=O)N(C)[C@H](CN2CCCC2)C2CC2)ccc1F` [Example 3.13, (S)-N-(1-Cyclopropyl-2-(pyrrolidin-1-yl)ethyl)-4-fluoro-N,3-di-methylbenzamide], the half-inhibitory concentration (IC50) is 3.6 µM. Still for that read-out and setting: then `CN(C(=O)c1ccc(C(C)(C)C#N)cc1)[C@H](CN1CC(O)C1)C1CCCCC1` [Example 36.5, 4-(2-Cyanopropan-2-yl)-N-[(1S)-1-cyclohexyl-2-(3-hydroxyazetidin-1-yl)ethyl]-N-methylbenzamide], with 1.9 µM; and `CCC[C@@H](CN1CC(O)C1)N(C)C(=O)c1cccc(C)c1` [Example 8.10, (S)-N-(1-(3-Hydroxyazetidin-1-yl)pentan-2-yl)-N,3-dimethyl-benzamide], with 4.3 µM. Same read-out and setting: then `C[C@@H](CN1CC(O)C1)N(C)C(=O)c1ccc(Cl)c(F)c1` [Example 40.3, (S)-4-Chloro-3-fluoro-N-(1-(3-hydroxyazetidin-1-yl)propan-2-yl)-N-methylbenzamide], with 9.4 µM. Still for that read-out and setting: then `CCc1ccc(C(=O)N(C)[C@@H](CC(C)C)CN2CC(O)C2)cc1` [Example 38.3, 4-Ethyl-N-[(2S)-1-(3-hydroxyazetidin-1-yl)-4-methylpentan-2-yl]-N-methylbenzamide], with 2.1 µM.

Take `Cc1ccc(C(=O)N(C)[C@H](CN2CC(O)(C3CC3)C2)C2CC2)cc1C` [Example 9.5, (S)-N-(1-Cyclopropyl-2-(3-cyclopropyl-3-hydroxyazetidin-1-yl)ethyl)-N,3,4-trimethylbenzamide]: the half-inhibitory concentration (IC50) was determined as 1.3 µM. On the same count and under the same terms, the value for `CCN(C(=O)c1ccc(Br)cc1)[C@H](CN1CCCC1)C(C)C` [Example 15.1, (S)-4-Bromo-N-ethyl-N-(3-methyl-1-(pyrrolidin-1-yl)butan-2-yl)benzamide] was 11 µM; that for `CN(C(=O)c1ccc(F)c(Cl)c1)C(CN1CC(O)C1)C1CCCC1` (single isomer, unassigned) [32.7, isomer 1] was 0.075 µM. Still for that read-out and setting: then `CC[C@@H](CN1CCCC1)N(C)C(=O)c1ccc(Br)cc1` [Example 17.1, (S)-4-Bromo-N-methyl-N-(1-(pyrrolidin-1-yl)butan-2-yl)benzamide], with 12 µM.

Staying with this test, now noted: printed as IC50 >67 μM in the 10-pt CR assay or IC50 >27 μM in the 7-pt CR assay; assay format per compound not stated; read-out: IC50.
For the compound `CC(C)[C@@H](CN1CC[C@H](O)C1)N(C)C(=O)c1cc(C(F)(F)F)ccc1F` [2-Fluoro-N-[(1S)-1-{[(3S)-3-hydroxypyrrolidin-1-yl]methyl}-2-methylpropyl]-N-methyl-5-(trifluoromethyl)benzamide], the concentration for half-maximal inhibition (IC50) was above 27 µM. On the same count and under the same terms, then `CC(C)[C@@H](CN1CC(C)(O)C1)N(C)C(=O)c1ccc(F)cc1` [(S)-4-Fluoro-N-(1-(3-hydroxy-3-methylazetidin-1-yl)-3-methylbutan-2-yl)-N-methylbenzamide], with above 27 µM; and `CC(C)[C@@H](CN1CCCC(F)(F)C1)N(C)C(=O)c1ccc(F)c(F)c1` [(S)-N-(1-(3,3-Difluoropiperidin-1-yl)-3-methylbutan-2-yl)-3,4-difluoro-N-methylbenzamide], with above 27 µM.

By IC50 is commonly meant the midpoint of a concentration-inhibition curve.

The record behind these values is patent US8361998B2, “Compounds and their use as IKACh blockers” (AstraZeneca AB, priority 2010, dated 2013).
